Positions of bridges follow the written chain, without caps; N, C: chain ends. Non-standard residues stand in square brackets, D forms with d. Residues, ends and D or L forms follow the SMILES beside them. *: point of attachment. hPhe(3,5-F2-4-CF3) = N[C@@H](CCc1cc(F)c(C(F)(F)F)c(F)c1)C(=O)O; hPhe(3-Cl-4-CF3) = N[C@@H](CCc1ccc(C(F)(F)F)c(Cl)c1)C(=O)O; Piperazinyl(4-(3-oxetanyl)) = C1OCC1N1CCN(*)CC1; NMeAbu(4,4,4-F3) = CN[C@@H](CC(F)(F)F)C(=O)O; NMePhe(4-Me) = CN[C@@H](Cc1ccc(C)cc1)C(=O)O; NMeGly(cPent) = CN[C@H](C(=O)O)C1CCCC1; NMeGly(cBu) = CN[C@H](C(=O)O)C1CCC1; NMeCha = CN[C@@H](CC1CCCCC1)C(=O)O; NEtLeu = CCN[C@@H](CC(C)C)C(=O)O; NMeCba = CN[C@@H](CC1CCC1)C(=O)O; NMeChg = CN[C@H](C(=O)O)C1CCCCC1; NMeI = CC[C@H](C)[C@H](NC)C(=O)O; Piperidide(4-Me) = CC1CCN(*)CC1; NMeD = CN[C@@H](CC(=O)O)C(=O)O; NMeL = CN[C@@H](CC(C)C)C(=O)O; Oxazolidin(3-yl) = C1CN(*)CO1; NMeNva = CCC[C@H](NC)C(=O)O; NMeV = CN[C@H](C(=O)O)C(C)C; d(β3hA) = C[C@@H](N)CC(=O)O; dIva = CC[C@@](C)(N)C(=O)O; NMeS = CN[C@@H](CO)C(=O)O; Morpholide = C1CN(*)CCO1; NMeA = CN[C@@H](C)C(=O)O; Piperidide = C1CCN(*)CC1; Pyrrolidide = C1CCN(*)C1; Ac5c = NC1(C(=O)O)CCCC1; Aze = O=C(O)[C@@H]1CCN1; X1 = FC1(F)CN(*)CC1(F)F; Isopentyl = CC(C)CC*; X14 = CC1(C)CCN(*)C1; NEtG = CCNCC(=O)O; Sar = CNCC(=O)O
Assays:
[1] = system: Human pancreatic cancer cell line AsPC-1; test: Measurement of AsPC-1 cell growth inhibition (AsPC-1 CGI); format: cell-based; conditions: 96 h
Method in brief: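 AsPC-1 cells in 15% FBS RPMI-1640 were exposed to test compound for 96 hours at 37° C, with CellTiter-Glo as endpoint.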

[2] = molecular target: T1, Kras and SOS1 (biotin-tagged human Kras loaded with GDP, His-tagged human SOS1) (Homo sapiens, UniProt P01116, G12D); test: Protein-protein interaction inhibition between Kras and SOS1 (KrasGl2D-SOS PPI) using AlphaScreen; format: binding; conditions: AlphaScreen; biotin-tagged human Kras loaded with GDP, His-tagged human SOS1; read-out: KRAS G12D-SOS PPI IC50
T1 construct: made in house; host or cells: E. coli (stated for Kras only)
T1 sequence (P01116 1-188 isoform P01116-2 G12D): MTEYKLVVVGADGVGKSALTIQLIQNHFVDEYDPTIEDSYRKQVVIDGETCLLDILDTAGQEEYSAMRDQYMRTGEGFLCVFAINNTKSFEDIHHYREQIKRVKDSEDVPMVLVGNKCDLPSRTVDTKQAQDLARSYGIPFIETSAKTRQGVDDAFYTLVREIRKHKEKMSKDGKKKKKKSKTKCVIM
Method in brief: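 Binding between SOS1 and Kras is detected as bead-proximity luminescence: illuminate Ni-conjugated donors (680 nm), collect 520-620 nm emission from streptavidin-conjugated acceptors; Kras carries biotin and GDP loaded after purification, SOS1 carries a His tag.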

Compound | IC50 [1] | IC50 [2]
CC[C@H](C)[C@@H]1NC(=O)[C@H](COCCC(C)C)N(C)C(=O)C[C@@H](C(=O)N2CCCCC2)N(C)C(=O)[C@H](C2CCCCC2)N(C)C(=O)C2(CCCC2)NC(=O)[C@@H]2CCCN2C(=O)[C@H](CCc2ccc(C(F)(F)F)c(Cl)c2)NC(=O)CN(C)C(=O)[C@H](CC2CCCCC2)N(C)C(=O)CN(C)C(=O)CN(C)C1=O [Compound 1115] ([NMeS](Isopentyl)I[Sar][Sar][NMeCha][Sar][hPhe(3-Cl-4-CF3)]P[Ac5c][NMeChg][NMeD]-Piperidide; lactam N-11) | 100 to 500 nM | 2.5 nM
CC[C@H](C)[C@@H]1NC(=O)[C@H](CC(C)C)N(C)C(=O)C[C@@H](C(=O)N2CCCCC2)N(C)C(=O)[C@H](C(C)C)N(C)C(=O)C2(CCCC2)NC(=O)[C@@H]2CCCN2C(=O)[C@H](CCc2ccc(C(F)(F)F)c(Cl)c2)NC(=O)CN(C)C(=O)[C@H](CC2CCC2)N(C)C(=O)CN(C)C(=O)CN(C)C1=O [Compound 1124] ([NMeL]I[Sar][Sar][NMeCba][Sar][hPhe(3-Cl-4-CF3)]P[Ac5c][NMeV][NMeD]-Piperidide; lactam N-11) | 100 to 500 nM | 7 nM
CC[C@H](C)[C@@H]1NC(=O)[C@H](CC(C)C)N(C)C(=O)C[C@@H](C(=O)N2CCCCC2)N(C)C(=O)[C@H](C2CCC2)N(C)C(=O)C2(CCCC2)NC(=O)[C@@H]2CCCN2C(=O)[C@H](CCc2ccc(C(F)(F)F)c(Cl)c2)NC(=O)CN(C)C(=O)[C@H](CC2CCCCC2)N(C)C(=O)CN(C)C(=O)CN(C)C1=O [Compound 1128] ([NMeL]I[Sar][Sar][NMeCha][Sar][hPhe(3-Cl-4-CF3)]P[Ac5c][NMeGly(cBu)][NMeD]-Piperidide; lactam N-11) | 100 to 500 nM | 2.1 nM
CC[C@H](C)[C@@H]1NC(=O)[C@H](CC(C)C)N(C)C(=O)C[C@@H](C(=O)N2CCCCC2)N(C)C(=O)[C@H](C(C)C)N(C)C(=O)[C@@](C)(CC)NC(=O)[C@@H]2CCCN2C(=O)[C@H](CCc2ccc(C(F)(F)F)c(Cl)c2)NC(=O)CN(C)C(=O)[C@H](CC2CCCCC2)N(C)C(=O)CN(C)C(=O)CN(C)C1=O [Compound 1130] ([NMeL]I[Sar][Sar][NMeCha][Sar][hPhe(3-Cl-4-CF3)]P[dIva][NMeV][NMeD]-Piperidide; lactam N-11) | 100 to 500 nM | 4.4 nM
CC[C@H](C)[C@@H]1NC(=O)[C@H](CC(C)C)N(C)C(=O)C[C@@H](C(=O)N2CCC(C)(C)C2)N(C)C(=O)[C@H](C2CCCCC2)N(C)C(=O)C2(CCCC2)NC(=O)[C@@H]2CCCN2C(=O)[C@H](CCc2ccc(C(F)(F)F)c(Cl)c2)NC(=O)CN(C)C(=O)[C@H](CC2CCCCC2)N(C)C(=O)CN(C)C(=O)CN(C)C1=O [Compound 1150] ([NMeL]I[Sar][Sar][NMeCha][Sar][hPhe(3-Cl-4-CF3)]P[Ac5c][NMeChg][NMeD]-X14; lactam N-11) | 50 to 100 nM | 0.52 nM
CC[C@H](C)[C@@H]1NC(=O)[C@H](CC(C)C)N(C)C(=O)C[C@@H](C)NC(=O)[C@H](C2CCCC2)N(C)C(=O)C2(CCCC2)NC(=O)[C@H](C)N(C)C(=O)[C@H](CCc2ccc(C(F)(F)F)c(Cl)c2)NC(=O)CN(C)C(=O)[C@H](Cc2ccc(C)cc2)N(C)C(=O)[C@@H]2CCN2C(=O)[C@H](C)N(C)C1=O [Compound 1153] (cyclo([Ac5c][NMeGly(cPent)][d(β3hA)][NMeL]I[NMeA][Aze][NMePhe(4-Me)][Sar][hPhe(3-Cl-4-CF3)][NMeA])) | 100 to 500 nM | 2.5 nM
CC[C@H](C)[C@@H]1NC(=O)[C@H](CC(C)C)N(C)C(=O)C[C@@H](C(=O)N2CCC(C)CC2)NC(=O)[C@H]([C@@H](C)CC)N(C)C(=O)C2(CCCC2)NC(=O)[C@@H]2CCCN2C(=O)[C@H](CCc2ccc(C(F)(F)F)c(Cl)c2)NC(=O)CN(C)C(=O)[C@H](CC2CCCCC2)N(C)C(=O)CN(C)C(=O)CN(C)C1=O [Compound 1172] ([NMeL]I[Sar][Sar][NMeCha][Sar][hPhe(3-Cl-4-CF3)]P[Ac5c][NMeI]D-{Piperidide(4-Me)}; lactam N-11) | 100 to 500 nM | 6.8 nM
CC[C@H](C)[C@@H]1NC(=O)[C@H](CC(C)C)N(C)C(=O)C[C@@H](C(=O)N2CCOCC2)N(C)C(=O)[C@H](C(C)C)N(C)C(=O)C2(CCCC2)NC(=O)[C@@H]2CCCN2C(=O)[C@H](CCc2ccc(C(F)(F)F)c(Cl)c2)NC(=O)CN(C)C(=O)[C@H](CC2CCCCC2)N(C)C(=O)[C@@H]2CCN2C(=O)[C@H](C)N(C)C1=O [Compound 1178] ([NMeL]I[NMeA][Aze][NMeCha][Sar][hPhe(3-Cl-4-CF3)]P[Ac5c][NMeV][NMeD]-Morpholide; lactam N-11) | 50 to 100 nM | 1 nM
CC[C@H](C)[C@@H]1NC(=O)[C@H](CC(C)C)N(C)C(=O)C[C@@H](C(=O)N2CCOC2)N(C)C(=O)[C@H](C2CCCCC2)N(C)C(=O)C2(CCCC2)NC(=O)[C@@H]2CCCN2C(=O)[C@H](CCc2ccc(C(F)(F)F)c(Cl)c2)NC(=O)CN(C)C(=O)[C@H](CC2CCCCC2)N(C)C(=O)CN(C)C(=O)CN(C)C1=O [Compound 1180] ([NMeL]I[Sar][Sar][NMeCha][Sar][hPhe(3-Cl-4-CF3)]P[Ac5c][NMeChg][NMeD]-{Oxazolidin(3-yl)}; lactam N-11) | 50 to 100 nM | 0.5 nM
CC[C@H](C)[C@@H]1NC(=O)[C@H](CC(C)C)N(C)C(=O)C[C@@H](C(=O)N2CCN(C3COC3)CC2)N(C)C(=O)[C@H](C(C)C)N(C)C(=O)C2(CCCC2)NC(=O)[C@@H]2CCCN2C(=O)[C@H](CCc2ccc(C(F)(F)F)c(Cl)c2)NC(=O)CN(C)C(=O)[C@H](CC2CCCCC2)N(C)C(=O)[C@@H]2CCN2C(=O)[C@H](C)N(C)C1=O [Compound 1181] ([NMeL]I[NMeA][Aze][NMeCha][Sar][hPhe(3-Cl-4-CF3)]P[Ac5c][NMeV][NMeD]-{Piperazinyl(4-(3-oxetanyl))}; lactam N-11) | 100 to 500 nM | 6 nM
CC[C@H](C)[C@@H]1NC(=O)[C@H](CC(C)C)N(CC)C(=O)C[C@@H](C(=O)N2CCOCC2)N(C)C(=O)[C@H](C2CCCCC2)N(C)C(=O)C2(CCCC2)NC(=O)[C@@H]2CCCN2C(=O)[C@H](CCc2ccc(C(F)(F)F)c(Cl)c2)NC(=O)CN(C)C(=O)[C@H](CC2CCCCC2)N(C)C(=O)CN(C)C(=O)CN(C)C1=O [Compound 1189] ([NEtLeu]I[Sar][Sar][NMeCha][Sar][hPhe(3-Cl-4-CF3)]P[Ac5c][NMeChg][NMeD]-Morpholide; lactam N-11) | 50 to 100 nM | 0.74 nM
CCC[C@H]1C(=O)N[C@@H]([C@@H](C)CC)C(=O)N(C)CC(=O)N(C)CC(=O)N(C)[C@@H](Cc2ccc(C)cc2)C(=O)N(C)CC(=O)N[C@@H](CCc2cc(F)c(C(F)(F)F)c(F)c2)C(=O)N2CCC[C@H]2C(=O)NC2(CCCC2)C(=O)N(C)[C@@H](C2CCCCC2)C(=O)N(C)[C@H](C(=O)N2CCCC2)CC(=O)N1C [Compound 1197] ([NMeNva]I[Sar][Sar][NMePhe(4-Me)][Sar][hPhe(3,5-F2-4-CF3)]P[Ac5c][NMeChg][NMeD]-Pyrrolidide; lactam N-11) | 20 to 50 nM | 0.6 nM
CC[C@H](C)[C@@H]1NC(=O)[C@H](CC(C)C)N(C)C(=O)C[C@@H](C(=O)N2CCCCC2)N(C)C(=O)[C@H](C2CCCCC2)N(C)C(=O)C2(CCCC2)NC(=O)[C@@H]2CCCN2C(=O)[C@H](CCc2ccc(C(F)(F)F)c(Cl)c2)NC(=O)CN(CC)C(=O)[C@H](CC2CCCCC2)N(C)C(=O)CN(C)C(=O)CN(C)C1=O [Compound 1203] ([NMeL]I[Sar][Sar][NMeCha][NEtG][hPhe(3-Cl-4-CF3)]P[Ac5c][NMeChg][NMeD]-Piperidide; lactam N-11) | 100 to 500 nM | 2.1 nM
CC[C@H](C)[C@@H]1NC(=O)[C@H](CC(C)C)N(C)C(=O)C[C@@H](C(=O)N2CC(F)(F)C(F)(F)C2)N(C)C(=O)[C@H](C2CCCCC2)N(C)C(=O)C2(CCCC2)NC(=O)[C@@H]2CCCN2C(=O)[C@H](CCc2ccc(C(F)(F)F)c(Cl)c2)NC(=O)CN(C)C(=O)[C@H](CC2CCCCC2)N(C)C(=O)CN(C)C(=O)CN(C)C1=O [Compound 1207] ([NMeL]I[Sar][Sar][NMeCha][Sar][hPhe(3-Cl-4-CF3)]P[Ac5c][NMeChg][NMeD]-X1; lactam N-11) | 100 to 500 nM | 2.7 nM
CC[C@H](C)[C@@H]1NC(=O)[C@H](CC(C)C)N(C)C(=O)C[C@@H](C(=O)N2CCCCC2)N(C)C(=O)[C@H](C2CCCCC2)N(C)C(=O)C2(CCCC2)NC(=O)[C@@H]2CCCN2C(=O)[C@H](CCc2ccc(C(F)(F)F)c(Cl)c2)NC(=O)CN(C)C(=O)[C@H](CC2CCCCC2)N(C)C(=O)CN(CC)C(=O)CN(C)C1=O [Compound 1227] ([NMeL]I[Sar][NEtG][NMeCha][Sar][hPhe(3-Cl-4-CF3)]P[Ac5c][NMeChg][NMeD]-Piperidide; lactam N-11) | 100 to 500 nM | 1.3 nM
CC[C@H](C)[C@@H]1NC(=O)[C@H](CC(F)(F)F)N(C)C(=O)C[C@@H](C(=O)N2CCCC2)N(C)C(=O)[C@H](C2CCCCC2)N(C)C(=O)C2(CCCC2)NC(=O)[C@@H]2CCCN2C(=O)[C@H](CCc2cc(F)c(C(F)(F)F)c(F)c2)NC(=O)CN(C)C(=O)[C@H](CC2CCCCC2)N(C)C(=O)CN(C)C(=O)CN(C)C1=O [Compound 1228] ([NMeAbu(4,4,4-F3)]I[Sar][Sar][NMeCha][Sar][hPhe(3,5-F2-4-CF3)]P[Ac5c][NMeChg][NMeD]-Pyrrolidide; lactam N-11) | 20 to 50 nM | 0.59 nM

Reference: US12371454B2, “Cyclic peptide compound having Kras inhibitory action” (priority 2019, dated 2025)
